# Measured values as given in patent US12077503B2, “Substituted cyclic amides and their use as herbicides” (FMC CORPORATION, priority 2015, dated 2024).
# Legend:
# [1] = tested on: green foxtail (Setaria viridis); assay: Test A preemergence; type: in vivo; conditions: for Foxtail, Green plant response rating: 0 to 100 scale where 0 is no effect and 100 is complete control
# Outline: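 Treatment is preemergence as a directed soil spray after planting, or postemergence at the one- to two-leaf stage, with test chemical in a non-phytotoxic solvent mixture plus surfactant. Plants stay in the greenhouse about 10 d before visual injury scoring on a 0 to 100 scale versus untreated controls.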
# [2] = 125 g ai/ha, preemergence, approx. 10 d
melting point,SMILES,other results
,CN1C[C@H](c2csc3c2CCC(F)(F)C3)[C@@H](C(=O)Nc2ccccc2S(C)(=O)=O)C1=O (racemic) [Compound 1367],"Foxtail, Green plant response rating ([1]; 31 g ai/ha, Preemergence): 0; Plant response rating, Foxtail, Green ([1]; Preemergence, 125 g ai/ha, 0 to 100 scale (0 no effect, 100 complete control)): 60"
104 to 107 °C,CN1C[C@H](c2ccc(C(F)(F)F)cc2)[C@@H](C(=O)Nc2ccccc2Br)C1=O [Compound 943],
66 to 70 °C,CSc1ccccc1NC(=O)[C@H]1C(=O)NC[C@@H]1c1ccc(C(F)(F)F)cn1 [Compound 1050],
120 to 124 °C,CN1C[C@H](c2ccc(C(F)(F)F)cn2)[C@@H](C(=O)Nc2cccc(F)c2F)C1=O [Compound 1052],
161 to 165 °C,COc1cccc([C@H]2CNC(=O)[C@@H]2C(=O)Nc2cccc(F)c2F)c1F [Compound 1061],
,COc1cccc([C@H]2CN(C)C(=O)[C@@H]2C(=O)Nc2cccc(F)c2F)c1 [Compound 1062],"Foxtail, Green plant response rating ([1]; 31 g ai/ha, Preemergence): 100; Foxtail, Green plant response rating [1, 2]: 100"
,COc1cccc([C@H]2CN(C)C(=O)[C@@H]2C(=O)Nc2ccc(F)c(F)c2F)c1 [Compound 1063],"Foxtail, Green plant response rating ([1]; 31 g ai/ha, Preemergence): 100; Foxtail, Green plant response rating [1, 2]: 100"
173 to 176 °C,O=C1NC[C@H](c2ccc(C(F)(F)F)cn2)[C@H]1C(=O)Nc1ccc(F)c(F)c1F [Compound 1105],
137 to 141 °C,C=C(C)c1ccc([C@H]2CN(C)C(=O)[C@@H]2C(=O)Nc2cccc(F)c2C)cc1 [Compound 1150],
88 to 92 °C,CN1C[C@H](c2cc(Cl)cc(Cl)c2)[C@@H](C(=O)Nc2cccc(F)c2F)C1=O [Compound 1270],
136 to 140 °C,O=C1NC[C@H](c2cc(Cl)cc(Cl)c2)[C@H]1C(=O)Nc1cccc(F)c1F [Compound 1273],
103 to 107 °C,COc1ccc([C@H]2CN(C)C(=O)[C@@H]2C(=O)Nc2ccccc2F)cc1 [Compound 1342],
